Source: patent US8097605B2, “Combination of anticholinergics and inhibitors of phosphodiesterase type 4 for the treatment of respiratory disease” (Meda Pharma GmbH & Co. KG, priority 2004, dated 2012)

Assays:
[1] = test system: M1-M3 receptors; conditions: cited from earlier work
[2] = molecular target: M3 muscarinic receptors (Homo sapiens, UniProt P20309); conditions: kinetics studies; cited from earlier work
[3] = test system: allergen-induced airway eosinophilia; conditions: Brown Norway rats, administered intrapulmonary; cited from earlier work
[4] = dog, in vivo, 15 mg/kg; cited from earlier work
[5] = test system: human peripheral blood mononuclear cells (PBMCs); assay: LPS-induced TNFα release from human PBMCs/monocytes (sandwich ELISA); assay type: cell-based; conditions: LPS 1 μg/ml
Method: The influence of R,R-glycopyrrolate in combination with PDE4 inhibitors on TNF secretion was investigated by using human peripheral blood mononuclear cells (PBMCs). The study was approved by our institutional Ethics Committee according to the International Declarations of Helsinki and Tokyo.
PBMCs were isolated from heparinized blood samples of healthy donors by density gradient centrifugation. An equal volume of Hanks buffer (Life Technologies, Heidelberg, Germany) is added to heparinized whole blood samples. 15 ml Histopaque-1077 (Sigma, Deisenhofen, Germany) are overlayed with a maximum of 40 ml of blood/Hanks mixture were centrifuged for 30 min at room temperature (2000 rpm). A visible band containing PBMCs is transferred to a fresh tube and washed twice with Hanks-buffer. Finally cells are seeded in RPMI 1640 Medium (Life Technologies, Heidelberg, Germany) with Glutamax I (Gibco BRL, Eggenstein) and 10% fetal calf serum (Boehringer Mannheim, Penzberg, Germany). After isolated, PBMCs were cultured in RPMI 1640 medium supplemented with 10% fetal calf serum (FCS) at 37° C. 5% CO2 overnight. […] by adherence method, non-adherent cells were removed by changing the medium.
Cells are re-suspended at 10^6 cells/ml and incubated in 500 μl volumes in 24-well tissue culture plates (Falcon Becton Dickinson Labware) at 37° C., 5% CO2. After pre-incubation with test substances (0.5 μl/500 μl medium) for 30 min, cells were stimulated with lipopolysaccharide (LPS) (1 μg/ml). […]
Cytokine measurements in culture supernatants are done by sandwich ELISA using matched antibody pairs (Pharmingen, Heidelberg, Germany). […] Plates are read at 450 nm (reference 570 nm) in a microplate reader (Dynatech). The results are expressed as a percentage of the control level of cytokines production by cells stimulated in the absence of the compound.

M3 muscarinic receptors, sequence (P20309 whole entry): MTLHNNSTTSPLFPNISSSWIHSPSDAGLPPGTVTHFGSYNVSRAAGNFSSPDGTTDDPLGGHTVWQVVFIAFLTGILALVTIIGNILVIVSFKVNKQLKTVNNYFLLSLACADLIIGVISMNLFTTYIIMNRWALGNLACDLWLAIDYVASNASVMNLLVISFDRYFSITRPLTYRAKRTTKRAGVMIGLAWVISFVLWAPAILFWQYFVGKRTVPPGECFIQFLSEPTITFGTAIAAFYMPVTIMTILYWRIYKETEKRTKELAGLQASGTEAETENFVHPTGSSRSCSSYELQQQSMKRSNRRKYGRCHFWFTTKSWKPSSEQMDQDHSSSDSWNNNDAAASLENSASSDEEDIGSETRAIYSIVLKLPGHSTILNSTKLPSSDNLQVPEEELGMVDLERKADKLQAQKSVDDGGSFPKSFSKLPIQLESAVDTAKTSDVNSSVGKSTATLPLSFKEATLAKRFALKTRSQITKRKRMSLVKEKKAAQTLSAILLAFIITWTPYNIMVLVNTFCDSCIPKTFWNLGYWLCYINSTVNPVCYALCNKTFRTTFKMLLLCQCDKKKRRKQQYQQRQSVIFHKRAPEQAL

Structure (SMILES): C[N+]1(C)CCC(OC(=O)C(O)(c2ccccc2)C2CCCC2)C1 (racemic) [Glycopyrrolate]
- selectivity in binding to the M1-M3 receptors [1]: no selectivity
- dissociation from M3 muscarinic receptors [2]: dissociates slowly

Structure (SMILES): O=C(Nc1c(Cl)cncc1Cl)C(=O)c1cn(Cc2ccc(F)cc2)c2ccc(O)cc12 [AWD 12-281]
- ID50 suppression of allergen-induced airway eosinophilia [3]: 7 µg/kg
- emesis [4]: no emesis was induced

Structure (SMILES): C[N+]1(C)CC[C@@H](OC(=O)[C@](O)(c2ccccc2)C2CCCC2)C1.[Br-] [R,R-glycopyrrolate]
- influence on LPS-induced TNFα release ([5]; compound alone, up to 10 μmol/l): did not influence

Structure (SMILES): C[C@H]1C[C@H]2[C@@H]3CCC4=CC(=O)C=C[C@]4(C)[C@@]3(Cl)[C@@H](O)C[C@]2(C)[C@@]1(O)C(=O)CO [beclomethasone]
- ID50 suppression of allergen-induced airway eosinophilia [3]: 0.1 µg/kg

Structure (SMILES): COc1ccc(C2CNC(=O)C2)cc1OC1CCCC1 (centres unmarked) [rolipram]
- IC35 of TNFα release inhibition ([5]; rolipram alone): 68.9 ± 15.2 nM
- IC35 of TNFα release inhibition with simultaneous addition of R,R-glycopyrrolate ([5]; rolipram plus 10 μmol/l R,R-glycopyrrolate, p=0.0151): 1.70 ± 1.18 nM
